Source: patent publication US9725449B2, “Tricyclic compounds as anticancer agents” (BRISTOL-MYERS SQUIBB COMPANY, priority 2015, dated 2017)

The molecules below were run against BRD4 (Homo sapiens, UniProt O60885) (assay: Time resolved fluorescence resonance energy transfer (TR-FRET) binding assay, bromodomain BRD4). Settings: one of the FRET assays described; read-out: FRET BRD4 IC50.
Work on `[2H]C([2H])([2H])c1nnn(C)c1-c1cnc2c3ccc(C4=CCSCC4)nc3n([C@H](c3ccccc3)C3CCOCC3)c2c1` [Example 203, 11-(3,6-Dihydro-2H-thiopyran-4-yl)-5-[4-(^2H3)methyl-1-methyl-1H-1,2,3-triazol-5-yl]-8-[(S)-oxan-4-yl(phenyl)methyl]-3,8,10-triazatricyclo[7.4.0.0^2,^7]trideca-1(9),2(7),3,5,10,12-hexaene] yielded an IC50 of less than 10 nM. For `[2H]C([2H])([2H])c1nnn(C)c1-c1cnc2c3ccc(C4=CCS(=O)(=O)CC4)nc3n([C@H](c3ccccc3)C3CCOCC3)c2c1` [Example 204, 4-{5-[4-(^2H3)Methyl-1-methyl-1H-1,2,3-triazol-5-yl]-8-[(S)-oxan-4-yl(phenyl)methyl]-3,8,10-triazatricyclo[7.4.0.0^2,^7]trideca-1(9),2(7),3,5,10,12-hexaen-11-yl}-3,6-dihydro-2H-1λ^6-thiopyran-1,1-dione], the IC50 was less than 10 nM. For `[2H]C([2H])([2H])c1nnn(C)c1-c1cnc2c3ccc(C4CCS(=O)(=O)CC4)nc3n([C@H](c3ccccc3)C3CCOCC3)c2c1` [Example 205, 4-{5-[4-(^2H3)Methyl-1-methyl-1H-1,2,3-triazol-5-yl]-8-[(S)-oxan-4-yl(phenyl)methyl]-3,8,10-triazatricyclo[7.4.0.0^2,^7]trideca-1(9),2(7),3,5,10,12-hexaen-11-yl}-1λ^6-thiane-1,1-dione], the IC50 was less than 10 nM. For `Cc1nnn(C)c1-c1cnc2c3ccc(NC(=O)OC(C)C)nc3n([C@H](c3ccccc3)C3CCOCC3)c2c1` [Example 206, Propan-2-yl N-[5-(dimethyl-1H-1,2,3-triazol-5-yl)-8-[(S)-oxan-4-yl(phenyl)methyl]-3,8,10-triazatricyclo[7.4.0.0^2,^7]trideca-1(9),2(7),3,5,10,12-hexaen-11-yl]carbamate], the IC50 was less than 10 nM. Molecule `Cc1nnn(C)c1-c1cnc2c3ccc(NC(=O)C(C)(C)C)nc3n([C@H](c3ccccc3)C3CCOCC3)c2c1` [Example 207, N-[5-(Dimethyl-1H-1,2,3-triazol-5-yl)-8-[(S)-oxan-4-yl(phenyl)methyl]-3,8,10-triazatricyclo[7.4.0.0^2,^7]trideca-1(9),2(7),3,5,10,12-hexaen-11-yl]-2,2-dimethylpropanamide] has an IC50 of less than 10 nM. `Cc1nnn(C)c1-c1cnc2c3ccc(NS(C)(=O)=O)nc3n([C@H](c3ccccc3)C3CCOCC3)c2c1` [Example 208, N-[5-(Dimethyl-1H-1,2,3-triazol-5-yl)-8-[(S)-oxan-4-yl(phenyl)methyl]-3,8,10-triazatricyclo[7.4.0.0^2,^7]trideca-1(9),2(7),3,5,10,12-hexaen-11-yl]methanesulfonamide] gave an IC50 of less than 10 nM. `Cc1noc(C)c1-c1cnc2c3ccc(N4CCS(=O)(=O)CC4)nc3n([C@H](c3ccccc3)C3CCOCC3)c2c1` [Example 209, 4-[5-(Dimethyl-1,2-oxazol-4-yl)-8-[(S)-oxan-4-yl(phenyl)methyl]-3,8,10-triazatricyclo[7.4.0.0^2,^7]trideca-1(9),2(7),3,5,10,12-hexaen-11-yl]-1λ^6,4-thiomorpholine-1,1-dione] showed an IC50 of less than 10 nM. `Cc1nnn(C)c1-c1cnc2c3ccc(N4CCS(=O)(=O)CC4C)nc3n([C@H](c3ccccc3)C3CCOCC3)c2c1` (stereo partly drawn) [Example 210, 4-[5-(Dimethyl-1H-1,2,3-triazol-5-yl)-8-[(S)-oxan-4-yl(phenyl)methyl]-3,8,10-triazatricyclo[7.4.0.0^2,^7]trideca-1(9),2(7),3,5,10,12-hexaen-11-yl]-3-methyl-1λ^6,4-thiomorpholine-1,1-dione] showed an IC50 of less than 10 nM. In the case of `Cc1nnn(C)c1-c1cnc2c3ccc(N4CCS(=O)(=O)CC(C)C4)nc3n([C@H](c3ccccc3)C3CCOCC3)c2c1` (stereo partly drawn) [Example 211, 4-[5-(Dimethyl-1H-1,2,3-triazol-5-yl)-8-[(S)-oxan-4-yl(phenyl)methyl]-3,8,10-triazatricyclo[7.4.0.0^2,^7]trideca-1(9),2(7),3,5,10,12-hexaen-11-yl]-6-methyl-1λ^6,4-thiazepane-1,1-dione], the IC50 is reported as less than 10 nM. In the case of `[2H]C([2H])([2H])c1nnn(C)c1-c1cnc2c3ccc(N4CC(=O)NC(=O)C4)nc3n([C@H](c3ccccc3)C3CCOCC3)c2c1` [Example 212, 4-{5-[4-(^2H3)Methyl-1-methyl-1H-1,2,3-triazol-5-yl]-8-[(S)-oxan-4-yl(phenyl)methyl]-3,8,10-triazatricyclo[7.4.0.0^2,^7]trideca-1(9),2(7),3,5,10,12-hexaen-11-yl}piperazine-2,6-dione], the IC50 is reported as less than 10 nM. Work on `Cc1nnn(C)c1-c1cnc2c3ccc(N4CCS(=O)(=O)C(C)C4)nc3n([C@H](c3ccccc3)C3CCOCC3)c2c1` (stereo partly drawn) [Example 213, 4-[5-(Dimethyl-1H-1,2,3-triazol-5-yl)-8-[(S)-oxan-4-yl(phenyl)methyl]-3,8,10-triazatricyclo[7.4.0.0^2,^7]trideca-1(9),2(7),3,5,10,12-hexaen-11-yl]-2-methyl-1λ^6,4-thiomorpholine-1,1-dione] yielded an IC50 of less than 1 nM. In the case of `Cc1nnn(C)c1-c1cnc2c3ccc(N4CC5CC4CS5(=O)=O)nc3n([C@H](c3ccccc3)C3CCOCC3)c2c1` (stereo partly drawn) [Example 214, 5-[5-(Dimethyl-1H-1,2,3-triazol-5-yl)-8-[(S)-oxan-4-yl(phenyl)methyl]-3,8,10-triazatricyclo[7.4.0.0^2,^7]trideca-1(9),2(7),3,5,10,12-hexaen-11-yl]-2λ^6-thia-5-azabicyclo[2.2.1]heptane-2,2-dione], the IC50 is reported as less than 1 nM. Work on `CCOP(=O)(CCNc1ccc2c3ncc(-c4c(C)nnn4C)cc3n([C@H](c3ccccc3)C3CCOCC3)c2n1)OCC` [Example 215, Diethyl (2-{[5-(dimethyl-1H-1,2,3-triazol-5-yl)-8-[(S)-oxan-4-yl(phenyl)methyl]-3,8,10-triazatricyclo[7.4.0.0^2,^7]trideca-1(9),2(7),3,5,10,12-hexaen-11-yl]amino}ethyl)phosphonate] yielded an IC50 of less than 10 nM. `Cc1nnn(C)c1-c1cnc2c3ccc(N4CCS(=O)(=O)C(C)C4)nc3n(C(c3ccccc3)C3CCOCC3)c2c1` [Example 217, 4-[5-(Dimethyl-1H-1,2,3-triazol-5-yl)-8-[(S)-oxan-4-yl(phenyl)methyl]-3,8,10-triazatricyclo[7.4.0.0^2,^7]trideca-1(9),2(7),3,5,10,12-hexaen-11-yl]-2-methyl-1λ^6,4-thiomorpholine-1,1-dione] gave an IC50 of less than 10 nM. Molecule `Cc1nnn(C)c1-c1cnc2c3ccc(NCCP(=O)(O)O)nc3n([C@H](c3ccccc3)C3CCOCC3)c2c1` [Example 219, (2-{[5-(Dimethyl-1H-1,2,3-triazol-5-yl)-8-[(S)-oxan-4-yl(phenyl)methyl]-3,8,10-triazatricyclo[7.4.0.0^2,^7]trideca-1(9),2(7),3,5,10,12-hexaen-11-yl]amino}ethyl)phosphonic acid] has an IC50 of less than 1 nM. Molecule `CCOP(=O)(O)CCNc1ccc2c3ncc(-c4c(C)nnn4C)cc3n([C@H](c3ccccc3)C3CCOCC3)c2n1` [Example 220, (2-{[5-(Dimethyl-1H-1,2,3-triazol-5-yl)-8-[(S)-oxan-4-yl(phenyl)methyl]-3,8,10-triazatricyclo[7.4.0.0^2,^7]trideca-1(9),2(7),3,5,10,12-hexaen-11-yl]amino}ethyl)(ethoxy)phosphinic acid] has an IC50 of less than 1 nM. `Cc1nnn(C)c1-c1cnc2c3ccc(S(C)(=O)=O)nc3n([C@H](c3ccccc3F)C3CCOCC3)c2c1` [Example 221, 5-(Dimethyl-1H-1,2,3-triazol-5-yl)-8-[(S)-(2-fluorophenyl)(oxan-4-yl)methyl]-11-methanesulfonyl-3,8,10-triazatricyclo[7.4.0.0^2,^7]trideca-1(13),2(7),3,5,9,11-hexaene] gave an IC50 of less than 10 nM. For `Cc1noc(C)c1-c1cnc2c3ccc(S(C)(=O)=O)nc3n([C@H](c3ccccc3F)C3CCOCC3)c2c1` [Example 222, 5-(Dimethyl-1,2-oxazol-4-yl)-8-[(S)-(2-fluorophenyl)(oxan-4-yl)methyl]-11-methanesulfonyl-3,8,10-triazatricyclo[7.4.0.0^2,^7]trideca-1(13),2(7),3,5,9,11-hexaene], the IC50 was less than 10 nM. In the case of `[2H]C([2H])([2H])C(=O)c1cc2c(cn1)c1ncc(-c3c(C)noc3C)cc1n2[C@H](c1ccc(F)cc1)C1CCOCC1` [Example 223, 1-[5-(Dimethyl-1,2-oxazol-4-yl)-8-[(S)-(4-fluorophenyl)(oxan-4-yl)methyl]-3,8,12-triazatricyclo[7.4.0.0^2,^7]trideca-1(13),2(7),3,5,9,11-hexaen-11-yl](^2H3)ethan-1-one], the IC50 is reported as less than 10 nM. `[2H]C([2H])([2H])C(O)(c1cc2c(cn1)c1ncc(-c3c(C)noc3C)cc1n2[C@H](c1ccc(F)cc1)C1CCOCC1)C([2H])([2H])[2H]` [Example 224, 2-[5-(Dimethyl-1,2-oxazol-4-yl)-8-[(S)-(4-fluorophenyl)(oxan-4-yl)methyl]-3,8,12-triazatricyclo[7.4.0.0^2,^7]trideca-1(13),2(7),3,5,9,11-hexaen-11-yl](^2H6)propan-2-ol] gave an IC50 of less than 10 nM. With `[2H]C([2H])([2H])c1onc(C)c1-c1cnc2c3cnc(C(C)(C)O)cc3n([C@H](c3ccc(F)cc3)C3CCOCC3)c2c1` [Example 225, 2-{8-[(S)-(4-Fluorophenyl)(oxan-4-yl)methyl]-5-[5-(^2H3)methyl-3-methyl-1,2-oxazol-4-yl]-3,8,12-triazatricyclo[7.4.0.0^2,^7]trideca-1(13),2(7),3,5,9,11-hexaen-11-yl}propan-2-ol] the IC50 was less than 1 nM. In the case of `Cc1nnn(C)c1-c1cnc2c3ccc(Cl)nc3n([C@H](c3ccccc3F)C3CCOCC3)c2c1` [Example 226, 11-Chloro-5-(dimethyl-1H-1,2,3-triazol-5-yl)-8-[(S)-(2-fluorophenyl)(oxan-4-yl)methyl]-3,8,10-triazatricyclo[7.4.0.0^2,^7]trideca-1(13),2(7),3,5,9,11-hexaene], the IC50 is reported as less than 10 nM. In the case of `Cc1nnn(C)c1-c1cnc2c3ccc(-c4c(C)nnn4C)nc3n([C@H](c3ccccc3F)C3CCOCC3)c2c1` [Example 227, 5,11-Bis(dimethyl-1H-1,2,3-triazol-5-yl)-8-[(S)-(2-fluorophenyl)(oxan-4-yl)methyl]-3,8,10-triazatricyclo[7.4.0.0^2,^7]trideca-1(13),2(7),3,5,9,11-hexaene], the IC50 is reported as less than 1 nM.
